In paper PMC11121837, “Impact of Nitric Oxide-Release Kinetics on Antifungal Activity” (Journal of Fungi, 2024):
≈ marks a conversion by molar mass, not a printed value.

How the values were obtained:
Candida albicans = test: Susceptibility assay (MIC, broth microdilution, CLSI M27); format: cell-based; details: for MIC: 24 h
Candida auris = test: as above; format: cell-based; details: for resistance of strain to antifungal (breakpoint): C. auris ATCC MYA-5001, CLSI/EUCAST breakpoints; for MIC: Candidozyma auris, 24 h
Cryptococcus neoformans = test: as above; format: cell-based; details: for MIC: Cryptococcus neoformans, ATCC208821, 72 h, 72 h
[1] = tested on: Aspergillus fumigatus spores; test: Susceptibility assay for sporulating fungi (MIC, EUCAST E.Def.9.4); format: cell-based; details: ATCC1022; Aspergillus fumigatus ATCC 1022 spores
C. auris (MYA-5001) = format: cell-based, Candida auris; details: C. auris; daily exposure to 1/10th of MIC; by passage 5
[2] = tested on: C. neoformans (ATCC208821); format: cell-based, Cryptococcus neoformans; details: C. neoformans; daily exposure to 1/10th of MIC; by passage 5
[3] = Cryptococcus neoformans ATCC 208821

Compound | MIC (Candida albicans; Candida albicans ATCC MYA-2876) | MIC (Candida auris; Candida auris ATCC MYA-5001) | MIC (Cryptococcus neoformans; [3]) | MIC [1] | MIC of base scaffold (Candida albicans; Candida albicans ATCC 14053) | MIC of base scaffold (Candida albicans; Candida albicans ATCC 18804) | MIC of base scaffold (Candida albicans; Candida albicans ATCC MYA-2876) | MIC of base scaffold (Candida auris; Candida auris ATCC MYA-5000) | MIC of base scaffold (Candida auris; Candida auris ATCC MYA-5001) | MIC of base scaffold (Candida auris; Candida auris ATCC MYA-5003) | MIC of base scaffold (Cryptococcus neoformans; [3]) | MIC of base scaffold (Cryptococcus neoformans; Cryptococcus neoformans ATCC MYA-4566) | MIC of base scaffold (Cryptococcus neoformans; Cryptococcus neoformans ATCC MYA-4567) | resistance of strain to antifungal (breakpoint) (Candida albicans; C. albicans ATCC MYA-2876, CLSI/EUCAST breakpoints) | resistance of strain to antifungal (breakpoint) (Candida auris) | increase of MIC and MFC values after serial passaging (C. auris (MYA-5001)) | increase of MIC and MFC values after serial passaging [2]
OC(Cn1cncn1)(Cn1cncn1)c1ccc(F)cc1F [fluconazole, reference compound] | > 32 µg/mL | > 32 µg/mL | 4 µg/mL (≈ 13.1 µM) | > 125 µg/mL |  |  |  |  |  |  |  |  |  | resistant | resistant |  | 
Nc1nc(=O)[nH]cc1F [5-fluorocytosine, reference compound] | 0.125 µg/mL (≈ 0.968 µM) | 2 µg/mL (≈ 15.5 µM) | 4 µg/mL (≈ 31 µM) | > 62.5 µg/mL |  |  |  |  |  |  |  |  |  |  |  | over 256 fold | over 256 fold

Further lines, with some results ahead:

MIC (Candida albicans; Candida albicans ATCC MYA-2876) | MIC (Candida auris; Candida auris ATCC MYA-5001) | MIC (Cryptococcus neoformans; [3]) | MIC [1] | MIC of base scaffold (Candida albicans; Candida albicans ATCC 14053) | MIC of base scaffold (Candida albicans; Candida albicans ATCC 18804) | MIC of base scaffold (Candida albicans; Candida albicans ATCC MYA-2876) | MIC of base scaffold (Candida auris; Candida auris ATCC MYA-5000) | MIC of base scaffold (Candida auris; Candida auris ATCC MYA-5001) | MIC of base scaffold (Candida auris; Candida auris ATCC MYA-5003) | MIC of base scaffold (Cryptococcus neoformans; [3]) | MIC of base scaffold (Cryptococcus neoformans; Cryptococcus neoformans ATCC MYA-4566) | MIC of base scaffold (Cryptococcus neoformans; Cryptococcus neoformans ATCC MYA-4567) | Compound | resistance of strain to antifungal (breakpoint) (Candida albicans; C. albicans ATCC MYA-2876, CLSI/EUCAST breakpoints) | resistance of strain to antifungal (breakpoint) (Candida auris) | increase of MIC and MFC values after serial passaging (C. auris (MYA-5001)) | increase of MIC and MFC values after serial passaging [2]
 |  |  |  | > 20000 µg/mL | > 20000 µg/mL | > 20000 µg/mL | > 20000 µg/mL | > 20000 µg/mL | > 20000 µg/mL | > 20000 µg/mL | > 20000 µg/mL | 10000 µg/mL | NCCNCCN [DETA, Diethylenetriamine, reference compound] |  |  |  | 
0.25 µg/mL (≈ 0.229 µM) | > 32 µg/mL | 32 µg/mL (≈ 29.3 µM) | 125 µg/mL (≈ 114 µM) |  |  |  |  |  |  |  |  |  | CC[C@H](C)C[C@H](C)CCCCCCCCC(=O)N[C@H]1C[C@@H](O)[C@@H](NCCN)NC(=O)[C@@H]2[C@@H](O)CCN2C(=O)[C@H]([C@H](O)CCN)NC(=O)[C@H]([C@H](O)[C@@H](O)c2ccc(O)cc2)NC(=O)[C@@H]2C[C@@H](O)CN2C(=O)[C@H]([C@@H](C)O)NC1=O [caspofungin, reference compound] |  | resistant |  | 
60 µg/mL (≈ 144 µM) | 4 µg/mL (≈ 9.61 µM) | 0.5 µg/mL (≈ 1.2 µM) | > 500 µg/mL |  |  |  |  |  |  |  |  |  | Clc1ccc(COC(Cn2ccnc2)c2ccc(Cl)cc2Cl)c(Cl)c1 (stereo not drawn) [miconazole, reference compound] |  |  |  | 
